# What was measured:
# S. Enteritidis CVCC 1806 [1] = experiment: Counts of live cells by Live and Dead BacLight SYTO9/PI staining and flow cytometry after NaClO stress treatment; type: cell-based, Salmonella enteritidis
# Experimental: the NaClO stock solution of NaClO disinfectant solution containing 56.8 mg/mL chlorine was diluted to 100 mg/L with sterilized sterile water for later use, and 0.5 ml of bacterial suspension (10^9 CFU/mL) and 100 mg/L NaClO solution were taken respectively into a sterile EP tube. The products in the sterile EP tube were vortex-mixed, and the stress concentration in the final system was 50 mg/L.
# The mixed reagent was placed at room temperature, and systems were obtained for processing every 0.5 h within a stress treatment for up to 3 h, and 100 μL 1.5% Na2S2O3 was added to terminate the reaction.
# Counts of live cells: the concentration of bacterial suspension was adjusted to 10^7-10^9 CFU/mL, and live, dead and injured bacteria were distinguished using commercial Live and Dead BacLight test kits (Molecular Probes, Carlsbad, CA, USA). […]
# S. Enteritidis CVCC 1806 [2] = experiment: Counts of culturable cells by plate counting method after NaClO stress treatment; type: cell-based, Salmonella enteritidis; conditions: after 2.5 h of treatment with 50 mg/L NaClO solution, room temperature; FIG. 1
smiles,measurement,setting,value
"OCl [NaClO, sodium hypochlorite]",total content of live cells and bacteria in the sub-lethal injury state in the system,"S. Enteritidis CVCC 1806 [1]; after 2.5 h of treatment with 50 mg/L NaClO solution, flow cytometry",60.03%
same,induction of VBNC state,"S. Enteritidis CVCC 1806 [1]; after 2.5 h of treatment with 50 mg/L NaClO, live minus culturable cells at maximum",enter the VBNC state
same,number of culturable cells,S. Enteritidis CVCC 1806 [2],0 CFU/ml

# — US20240018466A1, “METHOD FOR INDUCING SALMONELLA ENTERITIDIS INTO VBNC STATE BY SODIUM HYPOCHLORITE” (Zhejiang Academy of Agricultural Sciences, priority 2022, published 2024)
